Test systems include SNB-19 CNS; DU-145 prostate; A498 renal; NCI-H522 lung; A549 NSCLC; 786-0 renal; U251 CNS; OVCAR-4 ovarian; CCRF-CEM leukemia; HCT-116 colon; NCI-H23 lung.
What all share (test): NCI tumour cell line growth inhibition, 48 h

Several values for one entry are separate records, joined by “and”; a condition that tells them apart may be missing. Identical values can stand only once.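 In this assay, cells in 96-well plates receive the compound at five concentrations for 48 hours. Endpoints are linearly interpolated between the surrounding concentrations. GI50 marks 50% less growth. Definition used: TGI = concentration required for complete inhibition of growth.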

For `O=[N+]([O-])c1ccc2nc3ccc([N+](=O)[O-])cn3c2c1`, the TGI with SNB-19 CNS was above 100 µM; in the test with DU-145 prostate, above 100 µM; in the test on A498 renal, above 100 µM; with NCI-H522 lung, 65.5 µM; in the test with A549 NSCLC, above 100 µM; with 786-0 renal it was above 100 µM. Besides, the TGI in the test on U251 CNS, with OVCAR-4 ovarian, in the test on CCRF-CEM leukemia, in the test on HCT-116 colon and in the test on NCI-H23 lung was above 100 µM each time.
With `O=C(C[C@@H]1NCCC[C@H]1O)Cn1cnc2cc(Br)c(Cl)cc2c1=O`, the TGI is 0.484 µM with SNB-19 CNS; 0.0919 µM with DU-145 prostate; 0.316 µM in the test with A498 renal; 0.169 µM with NCI-H522 lung; 0.143 µM in the test with A549 NSCLC; 0.135 µM in the test with 786-0 renal. The TGI is 0.256 µM in the test on U251 CNS; 0.0809 µM with OVCAR-4 ovarian; above 100 µM in the test with CCRF-CEM leukemia; 0.121 µM in the test on HCT-116 colon; 0.11 µM with NCI-H23 lung.
In the case of `O=C1C/C(=C\O)C(=O)c2ccccc2N1`, the TGI in the test with SNB-19 CNS, in the test on DU-145 prostate, in the test on A498 renal, in the test on NCI-H522 lung, in the test on A549 NSCLC and with 786-0 renal was above 100 µM throughout. Also, the TGI in the test on U251 CNS, in the test with OVCAR-4 ovarian, in the test on CCRF-CEM leukemia, with HCT-116 colon and in the test on NCI-H23 lung was above 100 µM throughout.
Turning to `Cc1cccc(NC(=O)CC(=O)N2N=C(N3c4ccccc4Sc4ccccc43)CC2c2ccccc2)c1` (stereo not given), the TGI in the test on SNB-19 CNS, with DU-145 prostate, with A498 renal, in the test with NCI-H522 lung, with A549 NSCLC and with 786-0 renal was above 100 µM throughout. Also, the TGI in the test with U251 CNS, in the test on OVCAR-4 ovarian, with CCRF-CEM leukemia, in the test with HCT-116 colon and with NCI-H23 lung was above 100 µM in each case.
With `COc1ccc(N2C(=O)C3c4[nH]c5ccc(C)cc5c4C4CCC(C(C)C)CC4C3C2=O)cc1` (stereo not given), the TGI with SNB-19 CNS, in the test on DU-145 prostate, in the test with A498 renal, in the test with NCI-H522 lung, with A549 NSCLC and with 786-0 renal was above 100 µM throughout. The TGI in the test with U251 CNS, in the test with OVCAR-4 ovarian, with CCRF-CEM leukemia, in the test with HCT-116 colon and with NCI-H23 lung was above 100 µM each time.
Consider `N#Cc1c(=O)c2cccnc2n2c1[nH]c1ccccc12`, for which the TGI with SNB-19 CNS, with DU-145 prostate, in the test on A498 renal, in the test on A549 NSCLC, in the test with 786-0 renal and in the test with U251 CNS was above 100 µM each time. The TGI in the test with OVCAR-4 ovarian, in the test on CCRF-CEM leukemia, in the test on HCT-116 colon and in the test with NCI-H23 lung was above 100 µM throughout.
In the case of `O=C1c2cc(Cl)ccc2-n2c(noc2=O)C2CSCN12` (stereo not given), the TGI with SNB-19 CNS, in the test on DU-145 prostate, with A498 renal, in the test on NCI-H522 lung, with A549 NSCLC and in the test on 786-0 renal was above 100 µM each time. The TGI with U251 CNS, in the test with OVCAR-4 ovarian, with CCRF-CEM leukemia and with HCT-116 colon was above 100 µM in each case.
Consider `O=C(c1ccccc1F)c1c(NCc2ccccc2)c(=O)c1=O`, for which the TGI in the test on SNB-19 CNS, in the test with DU-145 prostate, with A498 renal, with NCI-H522 lung, in the test on A549 NSCLC and with 786-0 renal was above 100 µM each time. Besides, the TGI in the test on U251 CNS, with OVCAR-4 ovarian, in the test on CCRF-CEM leukemia, in the test on HCT-116 colon and in the test with NCI-H23 lung was above 100 µM each time.
For the molecule `Oc1ccc2ccccc2c1-c1nnc(CCCCCCCCc2nnc(-c3c(O)ccc4ccccc34)o2)o1`, the GI50 in the test with SNB-19 CNS was 17.6 µM; in the test on DU-145 prostate, 2.38 µM; in the test with A498 renal, 14.2 µM; in the test on NCI-H522 lung, 1.53 µM; in the test with U251 CNS, 17.2 µM; in the test with OVCAR-4 ovarian it was 2.35 µM. Besides, the GI50 in the test with HCT-116 colon is 0.796 µM; in the test with NCI-H23 lung, 1.22 µM. The TGI was 25 µM and > 100 µM with SNB-19 CNS; 9.59 µM and > 24.2 µM in the test with DU-145 prostate; 25 µM and 41 µM in the test on A498 renal; 5.82 µM and 24.2 µM in the test with NCI-H522 lung; 25 µM and 32.9 µM with A549 NSCLC; 8.94 µM and 30.9 µM in the test with 786-0 renal. In addition, the TGI in the test with U251 CNS is 25 µM and > 63.8 µM; in the test on OVCAR-4 ovarian it was 25 µM; in the test on CCRF-CEM leukemia, above 60.3 µM; with HCT-116 colon it was 13.7 µM and > 50.3 µM; with NCI-H23 lung it was 6.33 µM and > 62.2 µM.
For `[N-]=[N+]=NC1(c2ccccc2)C(=O)Nc2ccccc2C1=O` (stereo not given), the TGI in the test with SNB-19 CNS is above 100 µM; in the test with DU-145 prostate it was above 100 µM; in the test with A498 renal, 43.4 µM; with A549 NSCLC, above 100 µM; with 786-0 renal, above 100 µM; in the test with U251 CNS it was above 100 µM. Further, the TGI in the test on OVCAR-4 ovarian, in the test on CCRF-CEM leukemia, in the test on HCT-116 colon and with NCI-H23 lung was above 100 µM each time.
On to `O=c1c(Cc2ccc(Cl)cc2)nnc2sc(-c3ccc([N+](=O)[O-])cc3)nn12`, for which the TGI in the test with SNB-19 CNS was above 100 µM; with DU-145 prostate it was above 100 µM; with A498 renal it was 63.6 µM; in the test with A549 NSCLC, above 100 µM; in the test on 786-0 renal, above 100 µM; with U251 CNS, above 100 µM. Besides, the TGI in the test with OVCAR-4 ovarian is above 100 µM; with CCRF-CEM leukemia, 55.8 µM; in the test with HCT-116 colon, 48.8 µM; with NCI-H23 lung it was 54.5 µM.
In the case of `CC(=O)N(C(C)=O)n1c(Cc2ccc(Cl)cc2)nn(C(C)=O)c1=O`, the TGI in the test on SNB-19 CNS, in the test with DU-145 prostate, with A498 renal, in the test with NCI-H522 lung, in the test on A549 NSCLC and with 786-0 renal was above 100 µM in each case. The TGI in the test on U251 CNS, in the test with OVCAR-4 ovarian, in the test with CCRF-CEM leukemia and in the test with NCI-H23 lung was above 100 µM throughout.

(Values after PubChem BioAssay (NCI).)
